Experimental data reported in patent publication US6727076B2 (priority 1995, dated 2004).
Entries after “also recorded” stand apart in the source; their conditions may differ. Counter-ions that a name gives are not always drawn.

Tests used:
T. harzianum DAOM 190830 = format: cell-based, Trichoderma harzianum
[1] = system: E. coli 287 (ATCC #11775); format: cell-based
E. coli MG1655 [2] = format: cell-based
E. coli MG1655 [3] = format: cell-based; remark: listed apart in the source

Compound: OC[C@@H](O)C(O)[C@H](O)CO [D-arabitol]
- carbon source utilization result (T. harzianum DAOM 190830): positive
- carbon source utilization result [1]: negative

Compound: C[C@H](O)[C@@H](O)[C@@H](O)[C@H](O)C=O [L-fucose]
- carbon source utilization result (T. harzianum DAOM 190830): positive
- carbon source utilization result [1]: positive

Compound: OC[C@H]1O[C@H](O)[C@H](O)[C@@H](O)[C@@H]1O [α-D-glucose]
- carbon source utilization result (T. harzianum DAOM 190830): positive
- carbon source utilization result [1]: positive

Compound: Cc1cn([C@H]2C[C@H](OP(=O)(O)O)[C@@H](CO)O2)c(=O)[nH]c1=O [thymidine 3′-monophosphate]
- suitability as phosphorus source (growth, purple color) (E. coli MG1655 [2]): positive

Compound: O=C(O)CC(Br)C(=O)O (stereo not shown) [Bromo succinic acid]
- carbon source utilization result (T. harzianum DAOM 190830): positive
- carbon source utilization result [1]: positive

Compound: O=C[C@@H](O)[C@H](O)[C@H](O)COP(=O)(O)O [arabinose 5-phosphate]
- suitability as phosphorus source (growth, purple color) (E. coli MG1655 [2]): positive

Compound: CC(=O)OC[C@H](N)C(=O)O [O-acetyle-serine with sodium sulfate, O-acetyl-serine]
- suitability as sulfur source (growth, purple color) (E. coli MG1655 [2]): positive

Compound: O=C[C@H](O)[C@@H](O)[C@H](O)[C@H](O)COP(=O)(O)O [Glucose-6-phosphate]
- suitability as phosphorus source (growth, purple color) (E. coli MG1655 [2]): positive
- carbon source utilization result [1]: positive

Compound: C[S+]([O-])CC[C@H](N)C(=O)O (stereo partly drawn) [L-methionine sulfoxide]
- suitability as sulfur source (growth, purple color) (E. coli MG1655 [2]): positive

Compound: O=S(=O)(O)CCO [isethionate]
- suitability as sulfur source (growth, purple color) (E. coli MG1655 [2]): positive

Compound: N[C@H](Cc1ccc(OP(=O)(O)O)cc1)C(=O)O [O-phospho-D-tyrosine]
- suitability as phosphorus source (growth, purple color) (E. coli MG1655 [2]): positive

Compound: O=C(O)CP(=O)(O)O [phosphonoacetic acid]
- suitability as phosphorus source (growth, purple color) (E. coli MG1655 [2]): not suitable

Compound: O=C(O)C(CO)OP(=O)(O)O (stereo not shown) [2-phosphoglyceric acid]
- suitability as phosphorus source (growth, purple color) (E. coli MG1655 [2]): positive

Compound: COC(=O)C(C)=O [Methyl pyruvate]
- carbon source utilization result (T. harzianum DAOM 190830): positive
- carbon source utilization result [1]: positive

Compound: gentiobiose
- carbon source utilization result (T. harzianum DAOM 190830): positive
- carbon source utilization result [1]: positive/negative

Compound: dextrin
- carbon source utilization result (T. harzianum DAOM 190830): positive
- carbon source utilization result [1]: positive

Compound: CCSCCC(N)C(=O)O (racemic) [DL-ethionine]
- suitability as sulfur source (growth, purple color) (E. coli MG1655 [2]): not suitable

Compound: O=C(CO)[C@@H](O)[C@H](O)[C@H](O)CO [D-fructose]
- carbon source utilization result (T. harzianum DAOM 190830): positive
- carbon source utilization result [1]: positive

Compound: N[C@@H](CSC[C@H](N)C(=O)O)C(=O)O [lanthionine]
- suitability as sulfur source (growth, purple color) (E. coli MG1655 [2]): positive

Compound: O=C[C@H](O)[C@@H](O)[C@@H](O)CO [L-arabinose]
- carbon source utilization result (T. harzianum DAOM 190830): positive
- carbon source utilization result [1]: positive

Compound: O=S1(=O)CCCC1 [tetramethylene sulfone]
- suitability as sulfur source (growth, purple color) (E. coli MG1655 [2]): not suitable

Compound: Nc1nc2c(ncn2[C@@H]2O[C@H](CO)[C@@H](OP(=O)(O)O)[C@H]2O)c(=O)[nH]1 [guanosine 3′-monophosphate]
- suitability as phosphorus source (growth, purple color) (E. coli MG1655 [2]): positive

Compound: NC(=O)CCC(=O)O [succinamic acid]
- carbon source utilization result (T. harzianum DAOM 190830): positive

Compound: CCCCCCCCCCCCS(=O)(=O)O [1-dodecane-sulfonic acid]
- suitability as sulfur source (growth, purple color) (E. coli MG1655 [2]): not suitable

Compound: NCCS(=O)(=O)O [taurine]
- suitability as sulfur source (growth, purple color) (E. coli MG1655 [2]): positive

Compound: O=C[C@@H](O)[C@@H](O)[C@H](O)[C@H](O)CO [D-mannose]
- carbon source utilization result (T. harzianum DAOM 190830): positive
- carbon source utilization result [1]: positive

Compound: phosphatidyl glycerol
- suitability as phosphorus source (growth, purple color) (E. coli MG1655 [2]): not suitable

Compound: OP(O)(O)=S [thiophosphate]
- suitability as phosphorus source (growth, purple color) (E. coli MG1655 [2]): positive
- suitability as sulfur source (growth, purple color) (E. coli MG1655 [2]): positive

Compound: O=C(O)CCCCCCCCC(=O)O [sebacic acid]
- carbon source utilization result (T. harzianum DAOM 190830): positive
- carbon source utilization result [1]: negative

Compound: N[C@H]1C(OP(=O)(O)O)O[C@H](CO)[C@@H](O)[C@@H]1O (stereo partly shown) [glucosamine 1-phosphate]
- suitability as phosphorus source (growth, purple color) (E. coli MG1655 [2]): positive

Compound: OC[C@@H](O)[C@@H](O)[C@H](O)[C@H](O)CO [D-mannitol]
- carbon source utilization result (T. harzianum DAOM 190830): positive
- carbon source utilization result [1]: positive

Compound: O=P(O)(O)CP(=O)(O)O [methylene diphosphonic acid]
- suitability as phosphorus source (growth, purple color) (E. coli MG1655 [2]): not suitable

Compound: O=C[C@H](O)[C@@H](O)[C@H](O[C@@H]1O[C@H](CO)[C@@H](O)[C@H](O)[C@H]1O)[C@H](O)CO [Cellobiose]
- carbon source utilization result (T. harzianum DAOM 190830): positive
- carbon source utilization result [1]: negative

Compound: Nc1nc2c(ncn2[C@@H]2O[C@H](CO)[C@H]3OP(=O)(O)O[C@H]32)c(=O)[nH]1 [guanosine 2′:3′-cyclic monophosphate]
- suitability as phosphorus source (growth, purple color) (E. coli MG1655 [2]): positive

Compound: NCCC[C@H](N)C(=O)O [L-ornithine]
- carbon source utilization result (T. harzianum DAOM 190830): positive
- suitability as nitrogen source (growth, purple color) (E. coli MG1655 [3]): not suitable

Compound: N[C@H]1C(O)O[C@H](COP(=O)(O)O)[C@@H](O)[C@@H]1O (stereo partly shown) [glucosamine 6-phosphate]
- suitability as phosphorus source (growth, purple color) (E. coli MG1655 [2]): positive

Compound: glycogen
- carbon source utilization result (T. harzianum DAOM 190830): positive

Compound: CC(=O)N[C@@H](CS)C(=O)O [N-acetyl cysteine]
- suitability as sulfur source (growth, purple color) (E. coli MG1655 [2]): not suitable

Compound: CSC[C@H](N)C(=O)O [S-methyl-L-cysteine]
- suitability as sulfur source (growth, purple color) (E. coli MG1655 [2]): weak positive

Compound: N[C@@H](CS)C(=O)O [L-cysteine]
- suitability as sulfur source (growth, purple color) (E. coli MG1655 [2]): positive
- suitability as nitrogen source (growth, purple color) (E. coli MG1655 [3]): not suitable

Compound: O=P(O)(O)OP(=O)(O)OP(=O)(O)O [tripolyphosphate]
- suitability as phosphorus source (growth, purple color) (E. coli MG1655 [2]): not suitable

Compound: O=C(O)CCC(=O)C(=O)O [α-ketoglutaric acid]
- carbon source utilization result (T. harzianum DAOM 190830): positive

Compound: CSCC[C@H](N)C(=O)O [L-methionine]
- suitability as sulfur source (growth, purple color) (E. coli MG1655 [2]): positive
- suitability as nitrogen source (growth, purple color) (E. coli MG1655 [3]): not suitable

Compound: O=S(=O)(O)SSS(=O)(=O)O [tetrathionate]
- suitability as sulfur source (growth, purple color) (E. coli MG1655 [2]): positive

Compound: CC(O)CC(=O)O (stereo not drawn) [β-hydroxybutyric acid]
- carbon source utilization result (T. harzianum DAOM 190830): positive
- carbon source utilization result [1]: negative

Compound: O=S(O)(O)=S [thiosulfate]
- suitability as sulfur source (growth, purple color) (E. coli MG1655 [2]): positive

Compound: Cc1cn([C@H]2C[C@H](O)[C@@H](COP(=O)(O)O)O2)c(=O)[nH]c1=O [thymidine 5′-monophosphate]
- suitability as phosphorus source (growth, purple color) (E. coli MG1655 [2]): positive

Compound: O=c1ccn([C@@H]2O[C@H](CO)[C@@H](O)[C@H]2OP(=O)(O)O)c(=O)[nH]1 [uridine 2′-monophosphate]
- suitability as phosphorus source (growth, purple color) (E. coli MG1655 [2]): positive

Compound: O=C(CO)[C@@H](O)[C@H](O)[C@H](O)COP(=O)(O)O [Fructose-6-phosphate]
- suitability as phosphorus source (growth, purple color) (E. coli MG1655 [2]): positive

Compound: N[C@@H](CCSC[C@H](N)C(=O)O)C(=O)O [cystathionine]
- suitability as sulfur source (growth, purple color) (E. coli MG1655 [2]): positive

Compound: O=C(O)CC(O)(CC(=O)O)C(=O)O [Citric acid]
- carbon source utilization result (T. harzianum DAOM 190830): positive
- carbon source utilization result [1]: negative

Compound: N[C@@H](CSCSC[C@H](N)C(=O)O)C(=O)O [L-djenkolic acid]
- suitability as sulfur source (growth, purple color) (E. coli MG1655 [2]): positive

Compound: N[C@@H](COP(=O)(O)O)C(=O)O [O-phospho-L-serine]
- suitability as phosphorus source (growth, purple color) (E. coli MG1655 [2]): positive

Compound: O=P(O)(O)OC1O[C@H](CO)[C@@H](O)[C@H](O)[C@@H]1O (stereo partly shown) [mannose 1-phosphate]
- suitability as phosphorus source (growth, purple color) (E. coli MG1655 [2]): positive

Compound: CSCCC(NC(=O)CN)C(=O)O (racemic) [glycyl-DL-methionine]
- suitability as sulfur source (growth, purple color) (E. coli MG1655 [2]): positive

Compound: O=C[C@@H](O)[C@@H](O)[C@H](O)[C@H](O)COP(=O)(O)O [mannose 6-phosphate]
- suitability as phosphorus source (growth, purple color) (E. coli MG1655 [2]): positive

Compound: O=P(O)(O)OP(=O)(O)O [pyrophosphate]
- suitability as phosphorus source (growth, purple color) (E. coli MG1655 [2]): not suitable

Compound: N[C@@H](CS(=O)O)C(=O)O [L-cysteine sulphinic acid]
- suitability as sulfur source (growth, purple color) (E. coli MG1655 [2]): positive

Compound: CN(CC(=O)O)C(=N)NP(=O)(O)O [phosphocreatine]
- suitability as phosphorus source (growth, purple color) (E. coli MG1655 [2]): positive

Compound: NCCCC(=O)O [γ-aminobutyric acid]
- carbon source utilization result (T. harzianum DAOM 190830): positive
- suitability as nitrogen source (growth, purple color) (E. coli MG1655 [3]): weak positive; also recorded: not suitable

Compound: N[C@@H](CS(=O)(=O)O)C(=O)O [L-cysteic acid]
- suitability as sulfur source (growth, purple color) (E. coli MG1655 [2]): positive

Compound: CSCCC(NC(C)=O)C(=O)O (racemic) [N-acetyl-DL-methionine]
- suitability as sulfur source (growth, purple color) (E. coli MG1655 [2]): positive

Compound: O=C(COP(=O)(O)O)[C@@H](O)[C@H](O)[C@H](O)CO [fructose 1-phosphate]
- suitability as phosphorus source (growth, purple color) (E. coli MG1655 [2]): positive

Compound: C[C@@H](OP(=O)(O)O)[C@H](N)C(=O)O [O-phospho-L-threonine]
- suitability as phosphorus source (growth, purple color) (E. coli MG1655 [2]): positive

Compound: NCCS(=O)O [hypotaurine]
- suitability as sulfur source (growth, purple color) (E. coli MG1655 [2]): positive

Compound: O=P(O)(O)O[C@H]1[C@H](OP(=O)(O)O)[C@@H](OP(=O)(O)O)[C@H](OP(=O)(O)O)[C@@H](OP(=O)(O)O)[C@H]1OP(=O)(O)O [inositol hexaphosphate]
- suitability as phosphorus source (growth, purple color) (E. coli MG1655 [2]): not suitable

Compound: N[C@@H](CCC(=O)N[C@@H](CS)C(=O)NCC(=O)O)C(=O)O [glutathione (reduced form)]
- suitability as sulfur source (growth, purple color) (E. coli MG1655 [2]): positive
- suitability as nitrogen source (growth, purple color) (E. coli MG1655 [3]): not suitable

Compound: O=C(O)CS [thioglycolic acid]
- suitability as sulfur source (growth, purple color) (E. coli MG1655 [2]): not suitable

Compound: O=P(O)(O)OC(CO)CO [β-glycerophosphate]
- suitability as phosphorus source (growth, purple color) (E. coli MG1655 [2]): positive

Compound: CS(=O)(=O)CC[C@H](N)C(=O)O [L-methionine sulfone]
- suitability as sulfur source (growth, purple color) (E. coli MG1655 [2]): not suitable

Compound: O=C(O)COP(=O)(O)O [phosphoglycolic acid]
- suitability as phosphorus source (growth, purple color) (E. coli MG1655 [2]): positive

Compound: C[C@H](CCC(=O)NCCS(=O)(=O)O)[C@H]1CC[C@H]2[C@@H]3[C@H](O)C[C@@H]4C[C@H](O)CC[C@]4(C)[C@H]3C[C@H](O)[C@]12C [taurocholic acid]
- suitability as sulfur source (growth, purple color) (E. coli MG1655 [2]): positive
